The values below come from patent US11850283B2, “Liponucleotide-based therapy for asthma” (priority 2017, dated 2023).

The subject of test [1] is influenza A/WSN/33 (H1N1)-infected mice. As to the kind of experiment: Effect of influenza infection and i.p. liponucleotide treatment on lung function. The conditions noted are these: for CST / HR (bpm) / RBASAL / SaO2 (%) / WET:DRY: day 6. It counts as in vivo, mouse. The text has this: SaO2 increased from approximately 85% to approximately 96%. This is equivalent to an increase in PaO2 from approximately 65 mmHg to approximately 85 mmHg. It is also equivalent to an increase in O2 carrying capacity of blood (CaO2) from approximately 88% to approximately 97% of normal. Patients with an SaO2 of 96% or a […] would not require additional treatment

Test [2] relates to ATII cells from influenza A/WSN/33 (H1N1)-infected mice. Put plainly: Effect of influenza infection and CDP-CHO treatment on ATII cell ultrastructure. It counts as in vivo, mouse. The text has this: FIG. 14 is a group of three transmission electron micrographs showing effects of CDP-CHO treatment on ultrastructure of ATII cell lamellar bodies (composed of surfactant lipids and proteins). Relative to mock-infected controls, lamellar bodies in ATII cells from influenza A/WSN/33 (H1N1)-infected mice are smaller and have disordered lamellae.
FIG. 15 is a group of 3 transmission electron micrographs showing effects of influenza infection on ultrastructure of ATII cell mitochondria (Mi). Relative to mock-infected controls (left), Mi in ATII cells from A/WSN/33 (H1N1)-infected mice (center) are fewer in number, less electron dense, and have disordered membranes and cristae.

Another test deals with influenza-infected mice. Put plainly: Effect of influenza infection and CDP-CHO treatment on lung inflammation. It counts as in vivo. The conditions noted are these: day 6; 100 μg/mouse i.p., daily from 1-5 days post-infection.
The test system of test [3] is mitochondria, influenza-infected mice. As to the kind of experiment: Effect of influenza infection and CDP-CHO treatment on mitochondrial function. It counts as in vivo. The conditions noted are these: day 6; 100 μg/mouse i.p., daily from 1-5 days post-infection.
For test [4], the system named is mouse model of asthma (dust mite/ragweed/Aspergillus fumigatus [DRA] triple antigen exposure). As to the kind of experiment: Airway hyperresponsiveness to methacholine (flexiVent) in DRA mouse model of asthma. It counts as in vivo, BALB/c mice. Here is the method: (§1) To experimentally determine the efficacy of the liponucleotides (lipoNTs) CDP-choline (CDP-CHO), CDP-ethanolamine (CDP-ETH), and CDP-diacylglycerol 16:0/16:0 (CDP-DAG) as therapeutics in a mouse model of asthma (dust mite/ragweed/Aspergillus fumigatus [DRA] triple antigen exposure) (Chung S, et al. Oncotarget 2016 7:17532-17546).
(§2) To induce asthma, adult female BALB/c mice (n=4-5 per group) were sensitized with 50 μl alum+50 μl sterile saline containing dust mite allergen (5 μg/mouse)+ragweed allergen (5 μg/mouse)+Aspergillus allergen (5 μg/mouse) by i.p. injection on days 0 and 5. Mice were then challenged intranasally with dust mite allergen (8.3 μg/mouse)+ragweed allergen ([…])+Aspergillus allergen (8.3 μg/mouse) in 30 μl saline on days 12, 13, and 14, under isoflurane anesthesia. LipoNTs were administered daily by the intraperitoneal route in 50 μl sterile saline.
(§3) Data were collected 15 days after first exposure to DRA in terminal experiments.
Airway hyperresponsiveness (AHR) was measured by the forced-oscillation method using the SciReq flexiVent computer-controlled mechanical ventilator. […] Airway resistance at each methacholine dose was quantified by the single-compartment model. […]

For test [5] the test system is unchanged. Put plainly: BALF total and differential cell counts in DRA mouse model of asthma. It counts as in vivo, BALB/c mice. As to the method: as §1, §2, §3
Following flexiVent analysis, bronchoalveolar lavage was performed on all mice using 0.8 ml PBS. BALF total and differential cell counts (trypan-blue stained live cells and Giemsa-stained cytospins, respectively) were performed on cell pellets to assess inflammatory cell infiltrates. BALF eosinophil (EO), alveolar macrophage (AM), and neutrophil (PMN) counts were determined.

The test system is the same in test [6]. Put plainly: BALF cytokine and chemokine content by ELISA in DRA mouse model of asthma. It counts as in vivo, BALB/c mice. The conditions noted are these: treatment days 1-14 i.p. daily, mean ± SEM. Here is the method:
as §1, §2, §3
BAL supernatant fluid was stored at −20° C. for subsequent measurement of cytokine and/or chemokine content by ELISA using commercially available kits in accordance with manufacturers' instructions.

Setting [7] is: 100 μg/mouse i.p. on day 5 only.
[8] abbreviates: i.p. daily from 1-5 days post-infection, CDP-CHO 100 μg/mouse, CDP-DAG 10 μg/mouse.
Setting [9] is: i.p. daily from 1-5 days post-infection, CDP-CHO and CDP-ETH 100 μg/mouse, CDP-DAG 10 μg/mouse.
The mark [10] stands for this setting: ATII cells of infected mice, result in words.
The mark [11] stands for this setting: day 6, 100 μg/mouse i.p., daily from 1-5 days post-infection.
[12] abbreviates: treatment days 1-14, result in words.
Setting [13] is: treatment days 1-14 i.p. daily, day 15, mean ± SEM.

“Also recorded” adds a separate entry of the source. Marks after values point to notes of the source that are not given here.

For the compound `C[N+](C)(C)CCO[P@TB16](=O)(O)O[P@TB16](=O)(O)OC[C@H]1O[C@@H](n2ccc(N)nc2=O)[C@H](O)[C@@H]1O` [CDP-CHO, CDP-choline], in test [1] (setting [7]), the CST worked out at 0.05 ± 0.006, the “HR (bpm)” value was determined as 550 ± 10 bpm, the RBASAL was determined as 1.63 ± 0.22 and the “SaO2 (%)” value came out at 92.9 ± 1.5 %. Moreover, the “WET:DRY” value in test [1] (setting [7]) worked out at 6.2 ± 0.2. Also, in test [1] (setting [8]), the CST is given as 0.05 ± 0.002 and the RBASAL is listed as 1.96 ± 0.12. Moreover, in test [1] (setting [9]), the “HR (bpm)” value amounted to 570 ± 10 bpm, the “SaO2 (%)” value came out at 93.5 ± 1.0 % and the “WET:DRY” value came out at 6.2 ± 0.4. In test [1] (equivalent of the SaO2 increase, from approximately 65 mmHg), the PaO2 result is “approximately 85 mmHg”. In test [1] (equivalent of the SaO2 increase, from approximately 88%), the “O2 carrying capacity of blood (CaO2)” value is reported as “approximately 97 % of normal”. Further, the SaO2 result in test [1] (infected mice, CDP-CHO treatment, increased from approximately 85%) is “approximately 96%”. Also, in test [1] (infected mice, result in words), the “Effects of single dose treatment late in infection compared with daily treatment” value is “as good as those of daily treatment”, the cardiac function result is listed as “improved cardiac function”, the lung function entry is “better lung function” and the oxygenation entry is recorded as “improved oxygenation”. Moreover, the pulmonary edema entry in test [1] (infected mice, result in words) is given as “reduced pulmonary edema”. Further, in test [2] (setting [10]), the “ATII cell mitochondria (Mi) morphology (transmission electron micrographs)” value is “more electron-dense and have more normal cristae; also recorded: display normal morphology”; the “lamellar body morphology (transmission electron micrographs)” value is “improves lamellar body morphology”. Also, in test [2] (setting [11]), the “ATII CELL AREA (μm^2)” value was 53.64 ± 5.63* μm^2, the “LAMELLAR BODIES/CELL” value is reported as 8.1 ± 1.16, the “LAMELLAR BODY AREA (μm^2)” value is 0.41 ± 0.04* μm^2 and the MITOCHONDRIAL/CELL is 14.5 ± 1.78. In test [2] (setting [11]), the “MIT[…] (μm^2)” value was 0.34 ± 0.01* μm^2. Moreover, in the test on influenza-infected mice, the “BALF ALVEOLAR MACS (×10^6/ml)” value is 1.08 ± 0.21 ×10^6/ml, the “BALF NEUTROPHILS (×10^6/ml)” value is 0.45 ± 0.07 ×10^6/ml, the “BALF PC” value was 1.61 ± 0.45 and the “VIRAL TITER (log PFU/g)” value turned out to be 5.32 ± 0.07 log PFU/g. In test [3], the “MITOCHONDRIAL MEMBRANE POTENTIAL (ψm; DilC1(5) MCF)” value was 10.14 ± 2.3 and the “MIT[…] PRODUCTION” value is reported as 36.91 ± 6.82. For the same compound, in test [4] (setting [12]), the “DRA-induced AHR” value is listed as “does not attenuate”. In test [4] (treatment days 1-14 i.p. daily, CDP-CHO, CDP-ETH 5 mg/kg, CDP-DAG 0.5 mg/kg, peak airway resistance at 50 mg/ml methacholine, day 15, mean ± SEM), the “RMAX (cmH2O · s/ml)” value turned out to be 2.65 ± 0.06 cmH2O · s/ml. In test [5] (setting [12]), the “anti-inflammatory effect (BALF leukocyte counts)” value is “decreases BALF EO and AM counts”. Moreover, in test [5] (setting [13]), the “BALF AMs (×10^6)” value was 0.14 ± 0.03 ×10^6, the “BALF EOs (×10^6)” value was 0.26 ± 0.03 ×10^6 and the “BALF PMNs (×10^6)” value is recorded as 0.1 ± 0.03 ×10^6. Moreover, in test [6], the “CCL-11 (pg/ml), also known as eotaxin-1” value stood at 18 ± 8 pg/mL; the “IL-5” value was found to be 16 ± 5 pg/mL; the “IL-17” value was 5 ± 1 pg/mL.
In the case of `NCCO[P@SP3](=O)(O)O[P@SP3](=O)(O)OC[C@H]1O[C@@H](n2ccc(N)nc2=O)[C@H](O)[C@@H]1O` [CDP-ETH, CDP-ethanolamine], in test [1] (setting [9]), the “HR (bpm)” value turned out to be 540 ± 20 bpm, the “SaO2 (%)” value was found to be 91.1 ± 1.5% and the “WET:DRY” value is on record as 6.5 ± 0.4.
Regarding CDP-diacylglycerol [CDP-DAG], in test [1] (setting [9]), the “HR (bpm)” value is on record as 600 ± 10 bpm, the “SaO2 (%)” value was determined as 95.2 ± 1.6 % and the “WET:DRY” value is 5.8 ± 0.1.
